Series [1] can be described thus: Octanol-saturated water partition coefficient, log D of the compound. In kind it is physicochemical.
Series [2] relates to L1210. Description: Antitumor activity against mouse L1210 cells allografted in mouse assessed as increase of host lifespan. It is filed as functional.
Series [3] is described as follows: Distribution coefficient, log P of the compound. It is filed as physicochemical. The following applies: octanol/water.
In series [4] the test system is L1210. Description: Antitumor activity against mouse L1210 cells allografted in mouse assessed as increase of host lifespan of 110 days. In kind it is functional, cell-based.
For the next series, the species on record is Mus musculus. Description: Toxicity in mouse L1210 cells allografted mouse assessed as mortality up to 5 days. The following applies: l1210, 120 h. In kind it is organism-based.
The nature of series [5]: Aqueous phase distribution coefficient, log P of the compound in 0.01 M NaOH. It is filed as physicochemical.

Active and inactive are the calls of the source. No cut-off for these calls is given here.

This is an account of results in ChEMBL document CHEMBL3244339, “Antitumor 1-(X-aryl)-3,3-dialkyltriazenes. 1. Quantitative structure-activity relationships vs. L1210 leukemia in mice” (J Med Chem, 1978).

In general, logD refers to the decadic logarithm of the distribution of all forms, ionised or not, between an organic phase and buffer at a given pH. A high value points to higher lipophilicity. As a reminder, the logP is the decadic logarithm of the partition coefficient of the neutral form, usually between octanol and water.

As for `CN(C)/N=N/c1ccccc1C(=O)NC#N`, in series [1], the logD came out at 0.8.

For `CN(Cc1ccccc1)/N=N/c1nc[nH]c1C(N)=O`, the “log(1/C)” value with L1210 [2] amounted to 3.43. For the same compound, the logP in series [3] (read-out: logP) was determined as 1.54.

With `CN(C)/N=N/c1ccc(NC(N)=O)cc1`, in the series on L1210 [2], the “log(1/C)” value is given as 3.97. In addition, the logP in series [3] was 1.25.

As for `CN(C)/N=N/c1n[nH]cc1C(N)=O`, the “log(1/C)” value in the series with L1210 [2] is listed as 3.49. The logP in series [3] (read-out: logP) was -0.12.

Regarding `CN(C)/N=N/c1ccccc1C(=O)NCC(N)=O`, the “log(1/C)” value in the series with L1210 [2] was 3.25. In series [3], the lipophilicity (logP) amounted to 1.17. Taken in the same sequence, the figures for `CN(C)/N=N/c1cc(C#N)cc(C#N)c1` were 2.78 and 2.18. For the compound `CN(C)/N=N/c1ccc(Cl)cc1C(=O)O`, the result in the series with L1210 [4] was inactive.

Take `CN(C)/N=N/c1ccccc1C(=O)NN`: the Activity entry in the series listed under Mus musculus was “Toxic”. The logD in series [1] is 1.28.

Take `CN(CCO)/N=N/c1ccccc1`: in the series filed under Mus musculus, the Activity result is recorded as “Toxic”. In series [5], this compound had a logP of 1.71. In the case of `CC(=O)N(C)/N=N/c1ccc(C)cc1`, the “log(1/C)” value with L1210 [2] is listed as 2.78. Moreover, the logP in series [3] (read-out: logP) amounted to 3.13. This compound yielded a logD in series [1] of 3.13. Consider `CCOC(=O)c1[nH]cnc1/N=N/N(C)C`, for which the “log(1/C)” value in the series on L1210 [2] is 3.98. Moreover, the logP in series [3] was found to be 0.44. For `CN(C)/N=N/c1ccccc1C(=O)NCC(F)(F)F`, in the series on L1210 [4], the outcome was inactive. Take `CN(C)/N=N/c1ccc([N+](=O)[O-])cc1C(=O)O`: the outcome with L1210 [4] was inactive. Same read-out and setting: under `CN(C)/N=N/c1ccccc1C#N` stands “inactive”; under `CN(C)/N=N/c1ccc(SC#N)cc1C(N)=O`, “inactive”.

With `CN(C)/N=N/c1cccc([N+](=O)[O-])c1`, the Activity entry in the series filed under Mus musculus is reported as “Toxic”. The same compound registered a logD in series [1] of 2.75. As to `CNC(=O)c1ccccc1/N=N/N(C)C`, the “log(1/C)” value in the series on L1210 [2] stood at 3.25. Also, the logP in series [3] turned out to be 1.83. With `COC(=O)c1c[nH]nc1/N=N/N(C)C`, the “log(1/C)” value in the series with L1210 [2] turned out to be 3.49. This compound also showed a logD in series [1] of 0.04. Take `CN(CCO)/N=N/c1ccccc1C#N`: the Activity entry in the series filed under Mus musculus is “Toxic”.

For `C=CCN(C)/N=N/c1ccc(C(N)=O)cc1`, in the series with L1210 [2], the “log(1/C)” value was 3.38. In addition, the log partition coefficient (logP) in series [3] was determined as 2.09. For the compound `CN(C)/N=N/c1cccc(NC(N)=O)c1`, the Activity result in the series filed under Mus musculus is given as “Toxic”. On the same count and under the same terms, under `CN(C)/N=N/c1ccc(C(F)(F)F)cc1` stands “Toxic”. Regarding `CN(C)/N=N/c1ccccc1C(=O)NCC#N`, the “log(1/C)” value with L1210 [2] is 3.22. This compound also registered a logP in series [3] of 1.79. As to `COc1ccc(C(N)=O)cc1/N=N/N(C)C`, the “log(1/C)” value in the series on L1210 [2] was 3.95. This compound showed a logP in series [3] of 0.44. Take `CN(/N=N/c1ccccc1C(=O)O)C1CCCCC1`: the Activity entry in the series filed under Mus musculus is recorded as “Toxic”. On the same count and under the same terms, under `CN(CC#N)/N=N/c1ccc(C(N)=O)cc1` stands “Toxic”. With `CCCCN(C)/N=N/c1ccc(C(N)=O)cc1`, the “log(1/C)” value with L1210 [2] worked out at 3.47. The compound also gave a logD in series [1] of 2.46.

With `CN(C)/N=N/c1ccc(C#N)cc1`, in the series listed under Mus musculus, the Activity result is “Toxic”. In addition, in series [1], the logD was found to be 2.39. As to `CN(C)/N=N/c1ccc(S(N)(=O)=O)cc1`, in the series with L1210 [2], the “log(1/C)” value is 3.6. For the same compound, in series [3], the logP turned out to be 0.98. With `CCCN(C)/N=N/c1ccccc1C(=O)O`, the “log(1/C)” value in the series with L1210 [2] is recorded as 3.74. In addition, the logP in series [5] is -1.66.

Turning to `CONC(=O)c1ccccc1/N=N/N(C)C`, the Activity result in the series listed under Mus musculus is reported as “Toxic”. On the same count and under the same terms, with `CNN(C)/N=N/c1ccc(C(N)=O)cc1` the entry was “Toxic”. Same read-out and setting: under `CN(C)/N=N/c1ccc(Cl)cc1C(N)=O` stands “Toxic”. With `CN(C)/N=N/c1cc(C(N)=O)cc(C(N)=O)c1`, the “log(1/C)” value in the series with L1210 [2] is on record as 3.27. The compound also gave a logP in series [3] of 0.22. As for `CC(=O)c1ccc(/N=N/N(C)C)cc1`, the Activity result in the series listed under Mus musculus was “Toxic”. Still for that read-out and setting: under `CN(CCO)/N=N/c1ccccc1Cl` stands “Toxic”. Take `CN(C)/N=N/c1ccccc1C(F)(F)F`: the outcome in the series on L1210 [4] was inactive. Regarding `CN(C)/N=N/c1ccccc1Cl`, in the series with L1210 [2], the “log(1/C)” value is reported as 3.26. The logP in series [5] was determined as 2.97.
